Laboratory results published in paper PMC7532674, “Synthesis and preliminary studies of ^11C-labeled tetrahydro-1,7-naphthyridine-2-carboxamides for PET imaging of metabotropic glutamate receptor 2” (Theranostics, 2020).
Read-outs that look alike come from different tables or passages of the source. Blank lines part the entries; values can stand above or below the compound they belong to.

How the values were obtained:
human mGlu2 = target: T1, human mGlu2 (Homo sapiens, UniProt Q14416); test: Human mGlu2 GIRK thallium flux assay; assay type: cell-based; settings: HEK293 cells, EC80 glutamate, triplicate assays (14g duplicate)
T1 construct: expressed in transfected cells
Experimental: (§1) Cell Line Generation and Thallium Flux Assays. The general procedure for the preparation of human mGlu2 and mGlu3 was described previously, [56] with minor modifications in this work. The cloning sites were NheI/NotI for both receptors. HEK GIRK cells, generously provided by Lily Jan (University of California San Francisco, San Francisco, CA), were transfected with 24 μg of DNA using Fugene6 (Promega), stable transfectants were selected with 1 μg/mL puromycin dihydrochloride (Sigma-Aldrich, St. Louis, MO), and polyclonal human mGlu2 GIRK and mGlu3 GIRK cell lines were established. Cells were maintained following selection in 45% DMEM, 45% Ham's F12, 10% FBS, 100 units/mL penicillin/streptomycin, 20 mM HEPES, pH 7.3, 1 mM sodium pyruvate, 2 mM glutamine, 700 μg/mL G418 (Mediatech, Inc., Herndon, VA), and […] puromycin (growth media) at 37 °C in the presence of 5% CO2. All cell culture reagents were purchased from Invitrogen Corp. (Carlsbad, CA) unless otherwise noted.
(§2) Human mGlu2 and mGlu3 Thallium Flux in Vitro Assays. Potencies of these NAMs at both mGlu2 and mGlu3 were investigated by thallium flux through GIRK channels, which was disclosed in detail as well as described in our previous work. In particular, cells were plated into 384-well, black-walled, clear-bottomed poly(D-lysine_-coated plates at a density of 15 000 cells per well in 20 μL of DMEM containing 10% dialyzed FBS, 20 mM HEPES, and 100 units/mL penicillin/streptomycin (assay media). Plated cells were incubated overnight at 37 °C in the presence of 5% CO2. The next day, the medium was exchanged from the cells to assay buffer [Hanks' balanced salt solution (Invitrogen) containing 20 mM HEPES, pH 7.3] using an ELX405 microplate washer (BioTek), leaving 20 μL per well, followed by the addition of 20 μL per well of FluoZin2-AM (330 nM final concentration) indicator dye (Invitrogen; prepared as a stock in DMSO and mixed in a 1:1 ratio with Pluronic acid F-127) in assay buffer. Cells were incubated for 1 h at room temperature, and the dye was exchanged to assay buffer using an ELX405, leaving 20 μL per well. For concentration-response curve experiments, compounds were serially diluted 1:3 into 10 point concentration-response curves and were transferred to daughter plates using an Echo acoustic plate reformatter (Labcyte, Sunnyvale, CA). Test compounds were diluted to 2 times their final desired concentration in assay buffer (0.3% DMSO final concentration). Agonists were diluted in thallium buffer [125 mM sodium bicarbonate (added fresh the morning of the experiment), 1 mM magnesium sulfate, 1.8 mM calcium sulfate, 5 mM glucose, 12 mM thallium sulfate, and 10 mM HEPES, pH 7.3] at 5 times the final concentration to be assayed. Cell plates and compound plates were loaded onto a kinetic imaging plate reader (FDSS 6000 or 7000; Hamamatsu Corporation, Bridgewater, NJ). Appropriate baseline readings were taken (10 images at 1 Hz; excitation, 470 ± 20 nm; emission, 540 ± 30 nm), and test compounds were added in a 20 μL volume and incubated for approximately 1 h at room temperature before the addition of 10 μL of thallium buffer with or without an EC80 concentration of the agonist glutamate for affinity evaluation experiments or with a full concentration-response of glutamate for Schild analysis experiments. After the addition of agonist, data were collected for approximately an additional 2.5 min. Data were analyzed using Excel (Microsoft Corp, Redmond, WA). The slope of the fluorescence increase beginning 5 s after thallium/agonist addition and ending 15 s after thallium/agonist addition was calculated, corrected to vehicle and maximal agonist control slope values, and plotted using either XLfit (ID Business Solutions Ltd.) or Prism software (GraphPad Software, San Diego, CA) to generate concentration-response curves. Potencies were calculated from fits using a four-point parameter logistic equation.

human mGlu3 = target: T2, human mGlu3 (Homo sapiens, UniProt Q14832); test: Human mGlu3 GIRK thallium flux assay; assay type: cell-based; settings: HEK293 cells, triplicate assays (14g duplicate)
T2 construct: expressed in transfected cells
Experimental: as §1, §2

major CNS targets = test: CNS panel binding selectivity assays (NIMH PDSP)
hERG = target: T3, hERG (Homo sapiens, UniProt Q12809); test: hERG safety assay; assay type: binding
T3 construct: NIMH PDSP

[1] = system: mGlu1, mGlu4, mGlu5, mGlu6 and mGlu8; test: Functional (agonist and antagonist) assays towards mGlu receptors; assay type: cell-based; settings: mGlu1, 4, 5, 6, 8
[2] = Whole body ex vivo biodistribution in mice
Experimental: Each mouse was treated with a bolus injection of [^11C]14b (50 μCi / 150 μL) via the tail vein. Three mice were sacrificed by cervical dislocation at each time point (1, 5, 15, 30 and 60 min) after injection. Major organs, including heart, lungs, liver, pancreas, spleen, kidneys, stomach (including contents), small intestine (including contents), large intestine (including contents), testes, muscle, whole brain and blood samples were quickly removed and weighed. The radioactivity remained in these organs was measured by a 2480 Wizard autogamma counter (PerkinElmer, USA). The results are expressed as the percentage of injected dose per gram of wet tissue (%ID/g) or standardized uptake value (SUV). All radioactivity measurements were decay-corrected to the time point of PET tracer injection based on half-life of ^11C.

[3] = Radiometabolite analysis in plasma and brain; assay type: in vivo, Sprague-Dawley rats; settings: SD rats
Experimental: Sprague-Dawley rats were sacrificed by decapitation under anesthesia at 5 and 20 min (n = 2 each time point) after the intravenous injection of [^11C]14b. Blood and whole brain samples were quickly harvested. Plasma was separated from the blood samples via 1) centrifuging at 15,000 g for 2 min at 4 °C, 2) mixing 0.5 mL of acetonitrile with 0.5 mL of supernatant, and then 3) vortexing for 15 s and centrifuging again at 15,000 g for 2 min for deproteinization. In terms of brain metabolite analysis, the removed rat brain was quickly placed on the ice, homogenized in an ice-cooled CH3CN/H2O (v/v, 1/1, 1 mL) solution, and then centrifuged at 15,000 g for 2 min at 4 °C. The supernatant was collected, whose radioactivity was >90% based on the total radioactivity in the brain homogenate. An aliquot of the supernatant (100 μL) obtained from the plasma or brain homogenate was injected into the radio-HPLC system and analyzed using a Capcell Pak UG80 C18 column (4.6 mm ID × 250 mm) in a mobile phase of CH3CN/H2O + 0.1% Et3N (v/v, 45/55) at a flow rate of 1.0 mL/min. The percentage of [^11C]14b to total radioactivity (corrected for decay) on the HPLC charts was calculated as ([peak area for [^11C]14b]/[total peak area]) × 100.

mGlu2 [4] = target: T4, mGlu2 (Rattus norvegicus, UniProt P31421); test: Dynamic PET imaging in rat brain; assay type: in vivo, SD rats; set-up: from tissue; host or cells: brain of living SD rats
Experimental: As we previously reported, PET scans were carried out by an Inveon PET scanner (Siemens Medical Solutions, Knoxville, TN, USA). During the scan, SD rats were anesthetized by oxygen mixed with 1-2% (v/v) isoflurane and kept body temperature at […] by a commercially available circulation system (T/Pump TP401, Gaymar Industries, Orchard Park, NY). A 24-gauge catheter was inserted into the tail vein to facilitate a bolus injection. The radiotracer [^11C]14a or [^11C]14b (ca. 1 mCi / 150-200 μL) was injected into the rat via the preinstalled catheter, and the dynamic acquisition of PET signals in rat brain was started at the same time and lasted for 60 min in 3D list mode. For pretreatment studies, 14a (1 mg/kg for [^11C]14a for self-blocking study in Figure S2; 3 mg/kg for [^11C]14b for blocking study in Figure S12C) or 14b (1 mg/kg for [^11C]14b for self-blocking study in Figure S12B), formulated in 300 μL of saline containing 10% ethanol and 5% Tween 80, was injected at 30 min via the tail vein catheter prior to the injection of [^11C]14a or [^11C]14b. The dynamic emission data were reconstructed by filtered back projection using Hanning's filter with a Nyquist cutoff of 0.5 cycle/pixel into 33 frames (10 s × twelve frames, 20 s × three frames, 30 s × three frames, 60 s × three frames, 150 s × three frames, and 300 s × nine frames). The TACs of [^11C]14a or [^11C]14b were analyzed from volumes of interest in the striatum, hippocampus, cortex, thalamus, pons and cerebellum normalized to a rat brain MRI template using PMOD software (version 3.4; PMOD technology, Zurich, Switzerland). The radioactivity was decay-corrected to the injection time and expressed as the standardized uptake value (SUV) which equals to (radioactivity per milliliter of tissue per injected radioactivity) × (gram of body weight). To obtain non-displaceable binding potential (BPND), simplified reference tissue model (SRTM), [54] was carried out on the basis of kinetic analysis using PMOD software. We acquired BP-parametric images using kinetic modeling without masking. Respective TACs in receptor-rich or -poor region were loaded for production of BP-map with default setting. Representative parametric images scaled with BPND were reconstructed by PMOD software using TACs in mGlu2-enriched and reference regions. Pons was selected as the reference region for mGlu2 (the lowest and consistent brain uptake and washout kinetics between baseline and blocking conditions). It should be noted that while there is a low-level expression of mGlu2 in the pons, it is not without existence. A reference region should be a region devoid of the target, but with similar tracer transport or diffusion to the other regions of interest with expression of the target. Therefore, there are some limitations when using pons as the reference region. For example, the partial volume effect in PET likely leads to spillover of activity from nearby higher uptake regions into the pons, artificially increasing the time-activity curve in the pons.

mGlu2 [5] = target: T4, mGlu2; test: In vitro autoradiography in rat brain sections; assay type: binding; set-up: from tissue; host or cells: Sprague-Dawley rat brain sections
Experimental: Sagittal rat brain slices were prepared into 20 μm sections with a cryostat (HM560; Carl Zeiss, Oberkochen, Germany), mounted on air plasma spray-coated glass slides, and stored at -80 °C before used for experiments. The sections were preincubated for 15 min in a glass tank containing 200 mL of Tris·HCl buffer (50 mM, pH 7.4) consisting of 2 mM of MgCl2 and 1.2 mM of CaCl2 at room temperature. After preincubation, the sections were incubated in a fresh buffer containing [^11C]14a or [^11C]14b (250 µCi in 200 mL buffer; molar activity 2.7 Ci/µmol of [^11C]14a and 2.5 Ci/µmol of [^11C]14b, respectively) in the glass tank for 30 min at room temperature. For blocking studies, non-radioactive 14a or 14b (10 μM) and QCA (10 μM) were chosen to determine the specificity of radiotracers for binding mGlu2. Six serial brain sections were used for each conditions. After incubation, brain sections were washed with cold buffer (3 × 5 min), immersed in cold distilled water, and then dried with cold air. The sections were placed in contact with imaging plates (BAS-MS2025, FUJIFILM, Tokyo, Japan). Autoradiograms were obtained and photostimulated luminescence (PSL) values in the ROIs were measured using a Bio-Imaging Analyzer System (BAS5000, FUJIFILM).

mGlu2 [6] = settings: cited from earlier work
[7] = cited from earlier work
[8] = set-up: method as in PMID 30611634; settings: cited from earlier work
[9] = SRTM, pons as reference, baseline

T4 sequence (P31421 19-872): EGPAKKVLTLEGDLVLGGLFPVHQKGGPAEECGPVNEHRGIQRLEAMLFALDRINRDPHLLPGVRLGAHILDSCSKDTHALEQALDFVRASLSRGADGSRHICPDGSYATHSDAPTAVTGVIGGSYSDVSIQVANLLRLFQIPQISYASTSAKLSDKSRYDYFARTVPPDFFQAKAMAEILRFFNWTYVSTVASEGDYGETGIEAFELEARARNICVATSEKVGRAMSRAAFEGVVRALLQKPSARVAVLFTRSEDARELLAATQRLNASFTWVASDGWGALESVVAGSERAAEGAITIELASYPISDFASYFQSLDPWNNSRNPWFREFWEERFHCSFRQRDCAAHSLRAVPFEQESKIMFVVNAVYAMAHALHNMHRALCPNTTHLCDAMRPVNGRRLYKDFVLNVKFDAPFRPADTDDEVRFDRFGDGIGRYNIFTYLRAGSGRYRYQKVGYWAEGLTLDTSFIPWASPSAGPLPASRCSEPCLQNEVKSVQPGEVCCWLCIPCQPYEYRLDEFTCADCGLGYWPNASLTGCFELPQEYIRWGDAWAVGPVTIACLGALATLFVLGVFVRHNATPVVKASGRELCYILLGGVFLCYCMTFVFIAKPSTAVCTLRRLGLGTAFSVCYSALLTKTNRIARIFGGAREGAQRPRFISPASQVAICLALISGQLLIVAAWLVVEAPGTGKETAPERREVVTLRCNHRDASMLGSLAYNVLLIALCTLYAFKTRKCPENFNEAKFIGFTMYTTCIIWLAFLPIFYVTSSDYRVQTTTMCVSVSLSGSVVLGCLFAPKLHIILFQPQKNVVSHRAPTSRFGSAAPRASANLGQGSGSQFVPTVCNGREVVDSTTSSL
T1 sequence (Q14416 19-872): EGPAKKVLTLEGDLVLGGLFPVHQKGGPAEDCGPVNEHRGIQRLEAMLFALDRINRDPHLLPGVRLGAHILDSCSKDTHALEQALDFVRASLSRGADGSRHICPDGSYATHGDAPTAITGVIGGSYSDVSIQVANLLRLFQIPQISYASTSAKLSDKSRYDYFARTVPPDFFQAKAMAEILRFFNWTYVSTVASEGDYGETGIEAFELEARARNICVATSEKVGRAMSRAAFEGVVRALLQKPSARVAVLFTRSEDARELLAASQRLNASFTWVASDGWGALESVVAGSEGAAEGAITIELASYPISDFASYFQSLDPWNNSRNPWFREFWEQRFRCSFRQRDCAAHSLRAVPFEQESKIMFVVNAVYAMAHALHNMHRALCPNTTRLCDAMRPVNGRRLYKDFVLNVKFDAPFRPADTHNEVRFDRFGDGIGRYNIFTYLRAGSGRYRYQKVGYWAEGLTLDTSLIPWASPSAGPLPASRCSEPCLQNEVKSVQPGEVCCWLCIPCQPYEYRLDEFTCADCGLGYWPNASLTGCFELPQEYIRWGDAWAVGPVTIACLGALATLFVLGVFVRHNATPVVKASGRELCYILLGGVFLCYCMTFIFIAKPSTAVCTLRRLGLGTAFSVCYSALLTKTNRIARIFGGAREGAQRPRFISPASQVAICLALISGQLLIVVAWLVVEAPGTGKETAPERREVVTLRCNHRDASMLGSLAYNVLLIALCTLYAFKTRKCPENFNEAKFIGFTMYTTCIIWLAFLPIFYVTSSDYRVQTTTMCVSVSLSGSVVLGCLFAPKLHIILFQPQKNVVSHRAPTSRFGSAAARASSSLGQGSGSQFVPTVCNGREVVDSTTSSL
T3 sequence (Q12809 whole entry): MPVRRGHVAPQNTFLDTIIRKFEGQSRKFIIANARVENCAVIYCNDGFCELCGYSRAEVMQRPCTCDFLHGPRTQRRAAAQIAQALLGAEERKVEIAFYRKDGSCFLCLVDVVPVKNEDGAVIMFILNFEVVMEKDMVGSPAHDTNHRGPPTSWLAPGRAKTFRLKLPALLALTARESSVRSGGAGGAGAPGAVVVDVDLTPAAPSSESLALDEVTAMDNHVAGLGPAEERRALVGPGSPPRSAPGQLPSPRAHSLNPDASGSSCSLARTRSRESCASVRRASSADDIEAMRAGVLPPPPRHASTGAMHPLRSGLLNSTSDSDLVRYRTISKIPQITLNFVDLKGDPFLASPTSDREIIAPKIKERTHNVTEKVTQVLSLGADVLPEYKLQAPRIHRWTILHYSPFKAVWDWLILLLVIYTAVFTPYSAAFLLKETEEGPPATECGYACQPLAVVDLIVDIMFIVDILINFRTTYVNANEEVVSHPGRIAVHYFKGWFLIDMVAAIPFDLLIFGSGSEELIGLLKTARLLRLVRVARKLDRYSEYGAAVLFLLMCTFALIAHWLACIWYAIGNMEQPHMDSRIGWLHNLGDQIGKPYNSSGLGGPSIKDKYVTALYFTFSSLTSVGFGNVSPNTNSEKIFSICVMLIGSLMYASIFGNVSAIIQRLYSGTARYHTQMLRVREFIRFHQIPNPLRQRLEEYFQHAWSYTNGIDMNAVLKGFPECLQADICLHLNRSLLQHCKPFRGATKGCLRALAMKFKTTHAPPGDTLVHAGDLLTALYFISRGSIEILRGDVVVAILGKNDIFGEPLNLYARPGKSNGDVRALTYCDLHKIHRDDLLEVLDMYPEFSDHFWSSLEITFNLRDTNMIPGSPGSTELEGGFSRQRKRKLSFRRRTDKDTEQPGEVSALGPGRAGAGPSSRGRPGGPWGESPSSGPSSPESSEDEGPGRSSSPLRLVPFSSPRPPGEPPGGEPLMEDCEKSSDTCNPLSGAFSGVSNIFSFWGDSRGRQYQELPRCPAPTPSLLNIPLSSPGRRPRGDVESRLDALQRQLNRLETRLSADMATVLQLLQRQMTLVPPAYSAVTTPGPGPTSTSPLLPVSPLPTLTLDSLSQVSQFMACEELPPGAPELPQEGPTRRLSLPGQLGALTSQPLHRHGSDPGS
T2 sequence (Q14832 23-879): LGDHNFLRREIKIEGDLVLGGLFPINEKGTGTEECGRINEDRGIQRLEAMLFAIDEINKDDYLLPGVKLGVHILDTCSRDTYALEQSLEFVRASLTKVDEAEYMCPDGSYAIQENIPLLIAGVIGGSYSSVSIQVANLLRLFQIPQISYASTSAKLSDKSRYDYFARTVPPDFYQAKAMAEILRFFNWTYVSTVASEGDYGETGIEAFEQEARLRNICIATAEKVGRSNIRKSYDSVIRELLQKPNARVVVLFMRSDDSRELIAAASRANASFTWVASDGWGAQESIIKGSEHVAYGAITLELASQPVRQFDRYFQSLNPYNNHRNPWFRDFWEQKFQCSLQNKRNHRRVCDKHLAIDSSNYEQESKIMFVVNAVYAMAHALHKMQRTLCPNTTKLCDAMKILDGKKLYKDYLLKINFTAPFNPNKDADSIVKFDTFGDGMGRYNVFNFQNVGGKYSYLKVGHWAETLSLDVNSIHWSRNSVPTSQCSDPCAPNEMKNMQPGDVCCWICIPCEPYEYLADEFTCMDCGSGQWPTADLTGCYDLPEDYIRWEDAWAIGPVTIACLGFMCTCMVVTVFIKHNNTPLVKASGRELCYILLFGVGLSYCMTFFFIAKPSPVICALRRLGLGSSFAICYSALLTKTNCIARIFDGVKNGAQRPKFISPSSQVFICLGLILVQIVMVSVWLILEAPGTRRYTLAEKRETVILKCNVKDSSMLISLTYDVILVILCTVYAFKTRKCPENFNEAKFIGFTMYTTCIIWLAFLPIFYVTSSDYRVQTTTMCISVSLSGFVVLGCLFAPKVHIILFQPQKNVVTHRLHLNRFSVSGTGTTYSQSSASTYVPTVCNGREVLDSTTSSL

IC50 (human mGlu2): 24 nM
IC50 (human mGlu3): > 10 µM
Off-target binding (major CNS targets; 10 μM compound, n = 4): No significant off-target binding (>50%)
Response with other major brain targets (major CNS targets; comprehensive CNS panel, NIMH PDSP): no significant response
Interaction with related mGlu receptor family [1]: no substantial interaction
SMILES: COc1cc(CN2CCc3c(-c4ccc(F)cc4F)cc(C(N)=O)nc3C2)ccn1 [14b, 4-(2,4-difluorophenyl)-7-((2-methoxypyridin-4-yl)methyl)-5,6,7,8-tetrahydro-1,7-naphthyridine-2-carboxamide]
Activity in hERG safety assay (hERG): no activity

Ratio of %ID/g(1min/60min) in blood [2]: > 3.5
Brain uptake ([2]; 5 min post injection): ca. 3.6 %ID/g
Radioactivity in heart, lungs, liver, pancreas, kidneys and small intestine ([2]; within initial 1 min): > 4 %ID/g
Unchanged fraction in plasma ([3]; 5 min post injection): 77%
Unchanged fraction in brain ([3]; 20 min post injection): > 99%
Unchanged fraction in plasma ([3]; 20 min post injection): 21%
Time of peak radioactivity in brain regions (mGlu2 [4]; SD rats, i.v.): ≤ 3 min
BPND in cerebellum (mGlu2 [4]; [9]): 0.12
BPND in striatum and cingulate cortex (mGlu2 [4]; [9]): 0.72
Reduction of BPND (mGlu2 [4]; pretreatment with 14a, 3 mg/kg i.v. 30 min before): 48-90%
Reduction of BPND (mGlu2 [4]; pretreatment with 14b, 1 mg/kg i.v. 30 min before): 41-88%
Ratio of cerebellum to pons (mGlu2 [5]; autoradiography, baseline): 1.78
Ratio of cerebral cortex to pons (mGlu2 [5]; autoradiography, baseline): 2.61
Ratio of hippocampus to pons (mGlu2 [5]; autoradiography, baseline): 2.00
Ratio of striatum to pons (mGlu2 [5]; autoradiography, baseline): 2.79
Decrease of region-to-pons ratios under blocking (mGlu2 [5]; preincubated with unlabeled QCA, 14b or 14a at 10 µM): 45-69%
SMILES: [11CH3]Oc1cc(CN2CCc3c(-c4ccc(F)cc4F)cc(C(N)=O)nc3C2)ccn1 [[^11C]14b, 4-(2,4-difluorophenyl)-7-((2-(methoxy-^11C)pyridine-4-yl)methyl)-5,6,7,8-tetrahydro-1,7-naphthyridine-2-carboxamide]

SMILES: Cc1cc(COc2cnc(C(N)=O)cc2-c2ccc(O[11CH3])cc2F)ccn1 [[^11C]MMP, 4-(2-fluoro-4-[^11C]methoxyphenyl)-5-((2-methylpyridin-4-yl)methoxy)picolinamide]
IC50 (mGlu2 [6]): 26 nM
Brain uptake, peak value ([7]; animal PET): ~ 0.6
LogD [8]: 3.30

SMILES: [11CH3]Oc1ccc(-c2cc(C(N)=O)nc3cc(CN4C(=O)CCC4=O)ccc23)c(F)c1 [[^11C]QCA, 7-((2,5-Dioxopyrrolidin-1-yl)methyl)-4-(2-fluoro-4-[^11C]methoxyphenyl) quinoline-2-carboxamide]
IC50 (mGlu2 [6]): 45 nM
Brain uptake, peak value [7]: ~ 0.3 SUV
